The values below are quoted from earlier work in patent publication US8273732B2, “Compositions for combating beta-lactamase-medicated antibiotic resistance using beta-lactamase inhibitors useful for injection” (Venus Remedies Limited, priority 2004, dated 2012).

Converted amounts (≈) assume the structure as drawn. Counter-ions that a name gives are not always drawn.

One data set relates to Acinetobacter baumannii. Particulars: 156 clinical isolates of A. baumannii.

In the case of `CO/N=C(\C(=O)N[C@@H]1C(=O)N2C(C(=O)O)=C(CSc3nc(=O)c(=O)[nH]n3C)CS[C@H]12)c1csc(N)n1` [ceftriaxone sodium, (6R,7R)-7-[2-(2-amino-4-thiazolyl)glyoxylamido]-8-oxo-3-[[(1,2,5,6-tetrahydro-2-methyl-5,6-dioxo-as-triazin-3-yl)thio]methyl]-5-thia-1-azabicyclo[4.2.0]oct-2-ene-2-carboxylic acid, 7^2-(Z)-(O-methyloxime), disodium salt, sesquaterhydrate], the solubility in ethanol entry (ethanol) was “very slightly soluble”. Besides, for the setting “methanol”, the solubility in methanol entry was “sparingly soluble”. For the same compound, the solubility in water entry (water) is “readily soluble”.
In the case of `CC1(C)[C@H](C(=O)O)N2C(=O)C[C@H]2S1(=O)=O` [Sulbactam, sulbactam], the “MIC (90)” value in the data set on Acinetobacter baumannii was 32 mg/L (≈ 137 µM).
